Measurements published in PMC3866693 (Journal of medicinal chemistry, 2013).

What was measured:
human mGluR1 [1] = conditions: VS = fP × Bmax/KD; cited from earlier work
rat mGluR1 = conditions: VS = fP × Bmax/KD; cited from earlier work
human mGluR1 [2] = conditions: read-out: IC50 (affinity for mGluR1); human mGluR1, reported; cited from earlier work
mGluR1 in monkey brain [3] = test: PET baseline experiment in rhesus monkey, brain radioactivity uptake; format: in vivo, rhesus monkey (Macaca mulatta)
rat BZP site = test: NIMH PDSP binding screen
GABAA = test: NIMH PDSP binding screen; parameters: species or system human
NMDA = test: NIMH PDSP binding screen; parameters: species or system human
mGluR1 = mGluR1 (Rattus norvegicus, UniProt P23385); test: stimulation of phosphoinositide hydrolysis, cloned rat receptors; format: cell-based; conditions: 10 μM
mGluR1, sequence (P23385 19-1199): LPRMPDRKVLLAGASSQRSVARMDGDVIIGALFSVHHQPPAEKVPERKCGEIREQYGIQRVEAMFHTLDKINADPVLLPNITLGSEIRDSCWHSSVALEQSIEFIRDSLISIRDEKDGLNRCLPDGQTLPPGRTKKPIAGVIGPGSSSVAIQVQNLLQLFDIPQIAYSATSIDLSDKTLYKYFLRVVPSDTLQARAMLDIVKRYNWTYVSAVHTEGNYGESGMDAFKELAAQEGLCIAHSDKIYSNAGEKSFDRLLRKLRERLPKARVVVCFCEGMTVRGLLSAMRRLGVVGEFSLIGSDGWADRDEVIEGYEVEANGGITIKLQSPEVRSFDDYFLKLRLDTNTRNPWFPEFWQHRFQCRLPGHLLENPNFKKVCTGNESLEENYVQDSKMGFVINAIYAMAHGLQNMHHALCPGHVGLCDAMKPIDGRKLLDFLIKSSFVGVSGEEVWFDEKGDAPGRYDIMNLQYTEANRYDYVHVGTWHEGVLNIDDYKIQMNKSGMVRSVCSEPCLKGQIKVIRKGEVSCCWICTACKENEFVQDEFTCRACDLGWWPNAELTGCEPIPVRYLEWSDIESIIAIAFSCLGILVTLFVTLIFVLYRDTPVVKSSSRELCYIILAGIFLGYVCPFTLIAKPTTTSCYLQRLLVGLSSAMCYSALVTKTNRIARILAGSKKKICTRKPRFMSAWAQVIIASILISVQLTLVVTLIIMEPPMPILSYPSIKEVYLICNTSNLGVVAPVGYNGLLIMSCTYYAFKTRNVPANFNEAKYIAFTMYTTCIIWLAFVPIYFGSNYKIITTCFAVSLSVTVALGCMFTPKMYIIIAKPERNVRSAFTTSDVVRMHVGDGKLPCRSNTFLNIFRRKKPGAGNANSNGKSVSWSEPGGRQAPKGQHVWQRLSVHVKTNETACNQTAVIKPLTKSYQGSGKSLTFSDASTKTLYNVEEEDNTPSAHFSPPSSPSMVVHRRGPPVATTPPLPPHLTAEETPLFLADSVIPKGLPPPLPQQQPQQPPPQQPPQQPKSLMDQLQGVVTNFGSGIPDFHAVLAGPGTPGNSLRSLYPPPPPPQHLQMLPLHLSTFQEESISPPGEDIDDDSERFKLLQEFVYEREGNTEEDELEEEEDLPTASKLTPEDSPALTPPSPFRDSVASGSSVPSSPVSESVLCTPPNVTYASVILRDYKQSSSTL

mGluR5 = mGluR5 (Rattus norvegicus, UniProt P31424); test: as above; format: cell-based; conditions: 10 μM
mGluR5, sequence (P31424 21-1203): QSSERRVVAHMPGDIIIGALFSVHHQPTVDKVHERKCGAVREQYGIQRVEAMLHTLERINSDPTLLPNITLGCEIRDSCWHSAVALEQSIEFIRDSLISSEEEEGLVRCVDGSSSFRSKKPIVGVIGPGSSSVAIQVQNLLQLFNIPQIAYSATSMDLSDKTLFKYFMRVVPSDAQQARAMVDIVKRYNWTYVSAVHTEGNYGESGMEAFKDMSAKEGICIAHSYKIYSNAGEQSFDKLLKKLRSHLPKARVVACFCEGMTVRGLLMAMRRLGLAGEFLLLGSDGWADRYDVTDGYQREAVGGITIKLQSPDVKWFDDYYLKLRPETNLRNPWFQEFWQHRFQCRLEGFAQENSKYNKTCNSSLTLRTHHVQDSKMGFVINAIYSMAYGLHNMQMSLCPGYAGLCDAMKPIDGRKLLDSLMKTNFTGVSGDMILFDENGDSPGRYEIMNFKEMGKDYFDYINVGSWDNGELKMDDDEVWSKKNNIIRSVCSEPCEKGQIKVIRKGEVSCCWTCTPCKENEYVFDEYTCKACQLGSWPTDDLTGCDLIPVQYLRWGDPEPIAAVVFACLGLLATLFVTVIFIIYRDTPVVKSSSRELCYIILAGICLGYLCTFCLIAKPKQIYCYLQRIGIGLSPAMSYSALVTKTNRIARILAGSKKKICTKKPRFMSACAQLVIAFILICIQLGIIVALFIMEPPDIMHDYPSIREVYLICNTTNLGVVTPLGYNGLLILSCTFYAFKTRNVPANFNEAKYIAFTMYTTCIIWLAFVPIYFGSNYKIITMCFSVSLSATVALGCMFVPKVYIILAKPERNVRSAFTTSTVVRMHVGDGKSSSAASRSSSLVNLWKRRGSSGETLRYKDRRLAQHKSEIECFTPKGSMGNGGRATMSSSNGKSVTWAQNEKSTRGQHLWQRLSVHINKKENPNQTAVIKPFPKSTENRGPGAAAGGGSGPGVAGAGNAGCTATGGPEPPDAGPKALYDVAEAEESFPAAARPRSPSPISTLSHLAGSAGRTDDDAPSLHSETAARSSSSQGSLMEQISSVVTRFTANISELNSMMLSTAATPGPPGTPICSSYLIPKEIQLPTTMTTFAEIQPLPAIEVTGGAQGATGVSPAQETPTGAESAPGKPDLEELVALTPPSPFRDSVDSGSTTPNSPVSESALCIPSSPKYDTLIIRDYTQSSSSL

[4] = compared with 7; cited from earlier work
mGluR1 in monkey brain [5] = target: mGluR1 in monkey brain (Macaca mulatta, UniProt I2CU04); test: PET preblock and challenge experiments with mGluR1 antagonist in rhesus monkey; format: in vivo, rhesus monkey (Macaca mulatta)
mGluR1 in monkey brain (Macaca mulatta, UniProt I2CU04), sequence (I2CU04 19-1195): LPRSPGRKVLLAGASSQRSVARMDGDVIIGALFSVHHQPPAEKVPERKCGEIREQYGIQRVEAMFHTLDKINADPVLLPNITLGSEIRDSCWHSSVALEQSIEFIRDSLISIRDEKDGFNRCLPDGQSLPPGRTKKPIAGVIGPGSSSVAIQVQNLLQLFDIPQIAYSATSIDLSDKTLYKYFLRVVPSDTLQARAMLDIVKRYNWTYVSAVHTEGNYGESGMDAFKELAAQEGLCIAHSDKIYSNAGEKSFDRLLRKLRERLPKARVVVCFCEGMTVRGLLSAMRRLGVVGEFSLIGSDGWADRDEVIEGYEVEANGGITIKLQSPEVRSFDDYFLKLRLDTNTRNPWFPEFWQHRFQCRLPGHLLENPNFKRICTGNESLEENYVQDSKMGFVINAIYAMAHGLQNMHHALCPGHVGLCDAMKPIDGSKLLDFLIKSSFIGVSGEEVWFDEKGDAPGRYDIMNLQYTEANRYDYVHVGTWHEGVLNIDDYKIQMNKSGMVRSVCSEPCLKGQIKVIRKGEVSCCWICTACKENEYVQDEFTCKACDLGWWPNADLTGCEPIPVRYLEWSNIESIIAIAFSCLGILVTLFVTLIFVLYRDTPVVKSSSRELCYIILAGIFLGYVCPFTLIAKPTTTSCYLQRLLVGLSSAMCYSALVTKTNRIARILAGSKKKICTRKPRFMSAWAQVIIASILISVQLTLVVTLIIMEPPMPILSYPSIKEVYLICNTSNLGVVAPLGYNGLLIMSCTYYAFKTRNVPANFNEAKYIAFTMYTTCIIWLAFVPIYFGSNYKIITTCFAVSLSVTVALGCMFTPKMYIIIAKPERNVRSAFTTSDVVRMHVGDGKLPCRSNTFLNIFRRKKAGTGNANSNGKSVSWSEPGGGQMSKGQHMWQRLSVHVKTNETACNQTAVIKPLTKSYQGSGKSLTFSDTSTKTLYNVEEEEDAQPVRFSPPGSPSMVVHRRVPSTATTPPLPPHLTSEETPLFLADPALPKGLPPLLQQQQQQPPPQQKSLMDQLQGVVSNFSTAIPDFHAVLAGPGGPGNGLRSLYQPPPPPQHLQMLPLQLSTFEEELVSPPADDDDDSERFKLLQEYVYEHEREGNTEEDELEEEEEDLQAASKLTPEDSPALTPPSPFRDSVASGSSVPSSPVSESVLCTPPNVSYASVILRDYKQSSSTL

mGluR5 in monkey brain = mGluR5 in monkey brain (Macaca mulatta, UniProt A0ACM8QRY8); test: PET challenge experiment with mGluR5-selective ligand in rhesus monkey; format: in vivo, rhesus monkey (Macaca mulatta); conditions: 5 mg/kg i.v. at 30 min after [^18F]11, third monkey
mGluR5 in monkey brain, sequence (A0ACM8QRY8 19-1212): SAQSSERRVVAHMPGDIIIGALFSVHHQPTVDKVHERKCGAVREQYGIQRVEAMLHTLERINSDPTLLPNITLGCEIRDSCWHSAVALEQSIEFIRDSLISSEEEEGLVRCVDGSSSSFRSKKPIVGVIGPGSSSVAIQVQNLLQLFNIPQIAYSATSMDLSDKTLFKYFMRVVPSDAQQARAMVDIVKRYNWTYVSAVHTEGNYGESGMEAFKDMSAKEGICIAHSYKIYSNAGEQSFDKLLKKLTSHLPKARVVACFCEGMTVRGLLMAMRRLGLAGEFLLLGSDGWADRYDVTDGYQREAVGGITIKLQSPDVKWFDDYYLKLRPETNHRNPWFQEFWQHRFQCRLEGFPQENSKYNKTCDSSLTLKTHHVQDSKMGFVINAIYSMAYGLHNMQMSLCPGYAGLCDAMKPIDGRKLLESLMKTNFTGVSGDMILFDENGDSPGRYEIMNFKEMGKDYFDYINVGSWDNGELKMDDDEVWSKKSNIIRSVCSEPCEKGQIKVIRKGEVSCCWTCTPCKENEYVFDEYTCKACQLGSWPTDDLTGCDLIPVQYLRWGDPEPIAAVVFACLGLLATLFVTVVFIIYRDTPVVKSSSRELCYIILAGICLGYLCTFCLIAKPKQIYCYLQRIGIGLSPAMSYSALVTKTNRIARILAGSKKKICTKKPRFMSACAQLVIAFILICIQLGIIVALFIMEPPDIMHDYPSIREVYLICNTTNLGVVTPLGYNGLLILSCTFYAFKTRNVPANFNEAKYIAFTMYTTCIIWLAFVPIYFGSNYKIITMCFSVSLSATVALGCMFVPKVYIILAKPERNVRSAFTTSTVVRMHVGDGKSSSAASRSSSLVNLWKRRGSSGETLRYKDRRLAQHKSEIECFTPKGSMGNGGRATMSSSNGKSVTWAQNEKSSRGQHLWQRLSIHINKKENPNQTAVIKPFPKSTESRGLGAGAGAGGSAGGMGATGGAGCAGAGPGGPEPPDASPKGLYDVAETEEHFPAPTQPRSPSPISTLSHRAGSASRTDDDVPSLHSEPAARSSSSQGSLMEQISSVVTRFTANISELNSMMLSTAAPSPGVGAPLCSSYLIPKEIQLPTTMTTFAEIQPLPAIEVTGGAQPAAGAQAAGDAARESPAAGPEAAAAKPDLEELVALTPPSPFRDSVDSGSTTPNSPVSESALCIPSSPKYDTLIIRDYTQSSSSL

Cc1c(-c2ccc(O[11CH3])cc2)nsc1NC(=O)[C@@H]1C[C@H]1C [[^11C]6]
effective binding potential (VS) (human mGluR1 [1]): 0.0161
effective binding potential (VS) (rat mGluR1): 0.683

CC(C)Nc1cc(-c2csc(N(C)C(=O)c3ccc(F)cc3)n2)ncn1 [[^18F]7, reference compound]
IC50 (human mGluR1 [2]): 5.1 nM

CNc1cc(-c2csc(N(C)C(=O)c3ccc([18F])cc3)n2)ncn1 [[^18F]11, [^18F]4-Fluoro-N-methyl-N-(4-(6-(methylamino)pyrimidin-4-yl)thiazol-2-yl)benzamide]
radiodefluorination (radioactivity uptake in skull) (mGluR1 in monkey brain [3]; all PET experiments in monkey): negligible
decrease of cerebellum radioactivity from peak (mGluR1 in monkey brain [3]; baseline, at end of 2-h scan (120 min)): 47%

CNc1cc(-c2csc(N(C)C(=O)c3ccc(F)cc3)n2)ncn1 [compound 11, 4-Fluoro-N-methyl-N-(4-(6-(methylamino)pyrimidin-4-yl)thiazol-2-yl)benzamide]
Ki (rat BZP site): > 10000 nM
Ki (GABAA): > 10000 nM
Ki (NMDA): > 10000 nM
efficacy at mGluR1 (stimulation of phosphoinositide hydrolysis) (mGluR1): antagonist
efficacy at mGluR5 (stimulation of phosphoinositide hydrolysis) (mGluR5): antagonist
IC50 (human mGluR1 [2]): 1.8 nM
extent of metabolism in human liver microsomes [4]: metabolized more extensively than 7

CO[C@H]1CC[C@@H](C(=O)c2ccc3nc4c(cc3c2)CCCO4)CC1 [compound 17]
distribution of [^18F]11 radioactivity across brain after preblock (mGluR1 in monkey brain [5]; 3 mg/kg i.v. at 5 min before [^18F]11): low and uniform
effect on [^18F]11 brain radioactivity after challenge (mGluR1 in monkey brain [5]; 3 mg/kg i.v. at 30 min after [^18F]11, second monkey): rapid decrease in radioactivity at all mGluR1-containing regions

Cc1nc(C#Cc2cccnc2)cs1 [compound 18, 3-((2-methyl-4-thiazolyl)ethynyl)pyridine]
effect on [^18F]11 brain washout kinetics after challenge (mGluR5 in monkey brain): no change in the washout kinetics from any brain region
